# Measured values: patent publication US8143259B2, “Cold menthol receptor antagonists” (Janssen Pharmaceutica, NV, priority 2008, dated 2012)
# pIC50: −log10 of the molar value. Several values for one entry are separate records, joined by “and”; a condition that tells them apart may be missing. Equal entries are not always repeated.
# Molecular target: T1, canine TRPM8 (Canis lupus familiaris, UniProt Q1A7N1)
# T1 construct: expressed in transfected cells
# Experiment: In Vitro Canine TRPM8 Functional Assay (Ca2+ fluorescence, icilin activation)
# Type: cell-based
# Details: for inhibition at 0.2 µM: HEK293, 0.2 μM compound; for inhibition at 0.2 µM / % Inh @ 0.2 μM: canine TRPM8 HEK293, icilin; for % Inh @ 0.2 μM: 0.2 μM compound; for pIC50: HEK293 cells stably expressing canine TRPM8, icilin activation, Ca2+ fluorescence
# In short: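 HEK293 cells stably expressing canine TRPM8, loaded with Calcium 3 dye; compounds added 5 min before icilin at a concentration giving ~80% maximal response. Peak icilin-evoked Ca2+ fluorescence, basal-subtracted and normalised to maximal response, fitted by sigmoidal nonlinear regression; quadruplicate wells.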
# T1 sequence (Q1A7N1 1-1104): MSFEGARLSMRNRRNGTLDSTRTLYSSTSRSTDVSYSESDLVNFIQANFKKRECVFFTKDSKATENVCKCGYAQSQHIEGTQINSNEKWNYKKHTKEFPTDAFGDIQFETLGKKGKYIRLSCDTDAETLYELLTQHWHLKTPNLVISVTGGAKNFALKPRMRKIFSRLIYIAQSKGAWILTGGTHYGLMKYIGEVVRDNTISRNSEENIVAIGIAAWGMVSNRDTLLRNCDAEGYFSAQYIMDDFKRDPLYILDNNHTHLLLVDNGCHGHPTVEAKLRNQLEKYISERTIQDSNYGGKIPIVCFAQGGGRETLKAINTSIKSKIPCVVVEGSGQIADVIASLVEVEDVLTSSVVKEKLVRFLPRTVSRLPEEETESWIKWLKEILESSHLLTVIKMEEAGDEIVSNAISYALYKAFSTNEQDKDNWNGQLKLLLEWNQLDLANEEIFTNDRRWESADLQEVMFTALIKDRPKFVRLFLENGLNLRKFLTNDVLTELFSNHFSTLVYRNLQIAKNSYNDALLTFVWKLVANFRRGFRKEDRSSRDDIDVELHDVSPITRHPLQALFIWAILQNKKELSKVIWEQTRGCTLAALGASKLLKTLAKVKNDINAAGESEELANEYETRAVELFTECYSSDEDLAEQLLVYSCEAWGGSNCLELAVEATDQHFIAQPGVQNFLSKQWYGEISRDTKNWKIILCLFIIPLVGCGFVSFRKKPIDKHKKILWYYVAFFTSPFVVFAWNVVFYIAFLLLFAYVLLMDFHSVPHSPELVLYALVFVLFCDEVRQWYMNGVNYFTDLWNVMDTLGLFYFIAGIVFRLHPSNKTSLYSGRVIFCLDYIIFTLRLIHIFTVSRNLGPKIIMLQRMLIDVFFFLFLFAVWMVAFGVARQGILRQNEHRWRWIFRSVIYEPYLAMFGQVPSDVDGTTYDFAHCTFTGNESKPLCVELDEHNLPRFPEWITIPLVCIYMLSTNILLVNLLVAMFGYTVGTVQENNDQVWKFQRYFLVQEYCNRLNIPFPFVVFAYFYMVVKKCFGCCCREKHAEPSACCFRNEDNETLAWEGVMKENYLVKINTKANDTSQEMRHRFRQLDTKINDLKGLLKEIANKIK
Structure (SMILES),inhibition at 0.2 µM [%],% Inh @ 0.2 μM (0.2 µM) [%],pIC50,% Inh @ 0.2 μM [%]
"O=C(C(Nc1ccccc1)c1cccnc1)N1CCCC1c1ccccc1F (stereo not shown) [Cpd 214, 1-[2-(2-Fluoro-phenyl)-pyrrolidin-1-yl]-2-phenylamino-2-pyridin-3-yl-ethanone]",58,,,
O=C(C(Nc1ccccc1)c1ccccn1)N1CCCC1c1ccccc1F (stereo not shown) [Cpd 217],,26,,
"O=C(C(Nc1c(F)cccc1F)c1ccc(CO)cc1)N1CCC[C@H]1c1ccccc1F (stereo partly drawn) [Cpd 219, 2-(2,6-Difluoro-phenylamino)-1-[(2S)-2-(2-fluoro-phenyl)-pyrrolidin-1-yl]-2-(4-hydroxymethyl-phenyl)-ethanone]",89,,7.17,
COC(=O)c1ccc(C2CCCN2C(=O)C(Nc2ccccc2F)c2ccc(C(F)(F)F)cc2)cc1 (stereo not shown) [Cpd 220],96,,7.32,
O=C(O)c1ccc(C2CCCN2C(=O)C(Nc2ccccc2F)c2ccc(C(F)(F)F)cc2)cc1 (stereo not shown) [Cpd 222],93,,7.18,
"O=C(C(Nc1ccccc1F)c1cc2ccccc2s1)N1CCCC1c1ccccc1F (stereo not shown) [Cpd 225, 2-Benzo[b]thiophen-2-yl-2-(2-fluoro-phenylamino)-1-[2-(2-fluoro-phenyl)-pyrrolidin-1-yl]-ethanone]",98,,8.15,
O=C(C(Nc1ccccc1)c1cnc2ccccc2c1)N1CCCC1c1ccccc1F (stereo not shown) [Cpd 226],,,7.37,
O=C(C(c1ccc(C(F)(F)F)cc1)N1CCc2ccccc21)N1CCCC1c1ccccc1 (stereo not shown) [Cpd 227],,,7.51,
O=C(C(c1ccc(C(F)(F)F)cc1)N1CCc2ccccc21)N1CCCC1c1ccccc1F (stereo not shown) [Cpd 228],,,7.60,
CN(c1ccccc1F)C(C(=O)N1Cc2ccccc2C1)c1ccc(C(F)(F)F)cc1 (stereo not shown) [Cpd 229],,,7.35,
O=C(C(c1ccc(C(F)(F)F)cc1)N1CCc2ccccc21)N1Cc2ccccc2C1 (stereo not shown) [Cpd 230],,,6.98,
CN(c1ccccc1F)C(C(=O)N1CCCC1c1ccccc1F)c1ccc(C(F)(F)F)cc1 (stereo not shown) [Cpd 233],,,,10
"O=C(C(Cc1c(F)cccc1F)c1ccc(C(F)(F)F)cc1)N1CCCC1c1ccccc1F (stereo not shown) [Cpd 244, 3-(2,6-Difluoro-phenyl)-1-[2-(2-fluoro-phenyl)-pyrrolidin-1-yl]-2-(4-trifluoromethyl-phenyl)-propan-1-one]",98,,7.78,
O=C(C(Nc1ccccc1F)c1ccc2ncccc2c1)N1CCCC1c1ccccc1F (stereo not shown) [Cpd 248],94,,7.91,
O=C(C(Cc1cccc(F)c1F)c1ccc(C(F)(F)F)cc1)N1CCCC1c1ccccc1F (stereo not shown) [Cpd 253],89,,7.18,
"O=C(C(Oc1ccccc1F)c1ccc(C(F)(F)F)cc1)N1CCCC1c1ccccc1F (stereo not shown) [Cpd 263, 2-(2-Fluoro-phenoxy)-1-[2-(2-fluoro-phenyl)-pyrrolidin-1-yl]-2-(4-trifluoromethyl-phenyl)-ethanone]",84,,6.96,
O=C(C(Nc1ccccc1)c1cnc2ccccc2c1)N1CCCC1c1ccccc1F (stereo not shown) [Cpd 264],93,,7.37,
Nc1ccc(C2CCCN2C(=O)C(Nc2ccccc2F)c2ccc(C(F)(F)F)cc2)cc1 (stereo not shown) [Cpd 266],100,,8.70,
O=C(C(Cc1c(F)cccc1F)c1ccc(C(F)(F)F)cc1)N1CCCC1c1ccccc1Cl (stereo not shown) [Cpd 267],98,,7.52,
CN(C)c1ccc(C2CCCN2C(=O)C(Nc2ccccc2F)c2ccc(Br)cc2)cc1 (stereo not shown) [Cpd 271],90,,7.05,

Structure (SMILES),inhibition at 0.2 µM [%],% Inh @ 0.2 μM (0.2 µM) [%],pIC50,% Inh @ 0.2 μM [%]
CN(C)c1ccc(C2CCCN2C(=O)C(Nc2ccccc2F)c2ccc(Cl)cc2)cc1 (stereo not shown) [Cpd 272],96,,6.96,
CN(C)c1ccc(C2CCCN2C(=O)C(Nc2c(F)cccc2F)c2ccc(Cl)cc2)cc1 (stereo not shown) [Cpd 273],98,,6.98,
O=C(C(Nc1ccccc1F)c1cnc2ccccc2c1)N1CCCC1c1ccccc1F (stereo not shown) [Cpd 281],89,,7.03,
O=C(C(Nc1ccccc1F)c1ccc2cccnc2c1)N1CCCC1c1ccccc1F (stereo not shown) [Cpd 284],92,95,7.70 and 7.59,
"O=C(C(Nc1ccccc1F)c1ccc(-c2cccnc2)cc1)N1CCCC1c1ccccc1F (stereo not shown) [Cpd 285, 2-(2-Fluoro-phenylamino)-1-[2-(2-fluoro-phenyl)-pyrrolidin-1-yl]-2-(4-pyridin-3-yl-phenyl)-ethanone]",91,96,7.92 and 7.82,
CCOC(=O)c1ccc(C(Nc2ccccc2F)C(=O)N2CCCC2c2ccccc2F)cc1 (stereo not shown) [Cpd 287],92,,7.57,
O=C(C(Nc1ccccc1F)c1ccc(-c2cncnc2)cc1)N1CCCC1c1ccccc1F (stereo not shown) [Cpd 288],91,95,8.05 and 8.00,
Nc1ccc(C2CCCN2C(=O)C(Nc2ccccc2F)c2ccc(Cl)cc2)cc1 (stereo not shown) [Cpd 290],98,,8.70,
O=C(C(c1ccc(C(F)(F)F)cc1)N1CCCc2ccccc21)N1CCCC1c1ccccc1 (stereo not shown) [Cpd 291],72,,6.37,
O=C(C(Nc1ccccc1F)c1ccc(N2CCOCC2)cc1)N1CCCC1c1ccccc1F (stereo not shown) [Cpd 293],86,,7.96,
O=C(C(Nc1ccccc1F)c1ccc(-c2ccncc2)cc1)N1CCCC1c1ccccc1F (stereo not shown) [Cpd 294],92,102,7.66 and 7.57,
"O=C(O)c1ccc(-c2ccc(C(Nc3ccccc3F)C(=O)N3CCCC3c3ccccc3F)cc2)cc1 (stereo not shown) [Cpd 295, 4′-{1-(2-Fluoro-phenylamino)-2-[2-(2-fluoro-phenyl)-pyrrolidin-1-yl]-2-oxo-ethyl}-biphenyl-4-carboxylic acid]",90,,7.33,
"CC(C)(C)OC(=O)N1CC=C(c2ccc(C(Nc3ccccc3F)C(=O)N3CCCC3c3ccccc3F)cc2)CC1 (stereo not shown) [Cpd 299, 4-(4-{1-(2-Fluoro-phenylamino)-2-[2-(2-fluoro-phenyl)-pyrrolidin-1-yl]-2-oxo-ethyl}-phenyl)-3,6-dihydro-2H-pyridine-1-carboxylic acid tert-butyl ester]",99,,7.19,
O=C(C(Nc1ccccc1F)c1ccc(-n2ccnc2)cc1)N1CCCC1c1ccccc1F (stereo not shown) [Cpd 301],99,,7.46,
"O=C(C(Nc1ccccc1F)c1ccc(C2=CCNCC2)cc1)N1CCCC1c1ccccc1F (stereo not shown) [Cpd 302, 2-(2-Fluoro-phenylamino)-1-[2-(2-fluoro-phenyl)-pyrrolidin-1-yl]-2-[4-(1,2,3,6-tetrahydro-pyridin-4-yl)-phenyl]-ethanone]",57,,,
Nc1cccc(C2CCCN2C(=O)C(Nc2ccccc2F)c2ccc(C(F)(F)F)cc2)c1 (stereo not shown) [Cpd 305],101,,8.70,
COC(=O)c1cccc(NC(C(=O)N2CCCC2c2ccccc2F)c2ccc3c(c2)CCO3)c1 (stereo not shown) [Cpd 311],99,,7.29,
CC(=O)Nc1cccc(C2CCCN2C(=O)C(Nc2ccccc2F)c2ccc(C(F)(F)F)cc2)c1 (stereo not shown) [Cpd 316],102,,7.59,
CC(=O)Nc1ccc(C2CCCN2C(=O)C(Nc2ccccc2F)c2ccc(C(F)(F)F)cc2)cc1 (stereo not shown) [Cpd 317],102,,8.52,
